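Protocol summary: plate cells (96-well), add compound at 5 concentrations, incubate 48 h, interpolate endpoints linearly. GI50 is the concentration that inhibits growth by half.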 Active and inactive are the calls of the source. Cut-off read from the data, not from the text of the source: active = GI50 up to about 1.1 µM and inactive = higher.
How the values were obtained:
Experiment in all cases: DTP human tumour cell line panel, 48 h
[1] = test system: SK-MEL-5
[2] = test system: T47D
[3] = test system: NCI-H23
[4] = test system: HCT-116
[5] = test system: NCI-H522
[6] = test system: Malme-3M
[7] = test system: OVCAR-4
[8] = test system: UO-31
[9] = test system: A549
[10] = test system: MDA-MB-231
[11] = test system: OVCAR-8
[12] = test system: PC-3
[13] = test system: SN12C
[14] = test system: EKVX
[15] = test system: HOP-92
[16] = test system: SK-MEL-2
[17] = test system: SR
[18] = test system: SF-268
[19] = test system: NCI-H460
[20] = test system: BT-549

| SMILES | GI50 [1] | GI50 [2] | GI50 [3] | GI50 [4] | GI50 [5] | GI50 [6] | GI50 [7] | GI50 [8] | GI50 [9] | GI50 [10] | GI50 [11] | GI50 [12] | GI50 [13] | GI50 [14] | GI50 [15] | GI50 [16] | GI50 [17] | GI50 [18] | GI50 [19] | GI50 [20] |
| --- | --- | --- | --- | --- | --- | --- | --- | --- | --- | --- | --- | --- | --- | --- | --- | --- | --- | --- | --- | --- |
| COc1ccc(Nc2c[nH]c(=O)[nH]c2=O)cc1 | > 100 µM (inactive) | > 100 µM (inactive) | > 100 µM (inactive) | > 100 µM (inactive) | > 100 µM (inactive) | > 100 µM (inactive) | > 100 µM (inactive) | > 100 µM (inactive) | > 100 µM (inactive) | > 100 µM (inactive) | > 100 µM (inactive) | > 100 µM (inactive) | > 100 µM (inactive) | > 100 µM (inactive) | > 100 µM (inactive) | > 100 µM (inactive) | – | – | – | – |
| O=C1C2=Cc3ccccc3CCN2c2ccccc21 | 17.3 µM (inactive) | – | > 59.6 µM (inactive) | 21.3 µM (inactive) | 40.2 µM (inactive) | 26.3 µM (inactive) | 33.7 µM (inactive) | 42.8 µM (inactive) | 49.2 µM (inactive) | > 41.9 µM (inactive) | 23.6 µM (inactive) | 35.2 µM (inactive) | 18.8 µM (inactive) | 29 µM (inactive) | 28.8 µM (inactive) | 21 µM (inactive) | 14.9 µM (inactive) | > 50.8 µM (inactive) | 21.2 µM (inactive) | 13.8 µM (inactive) |
| Cc1nc(N)sc1/N=N/c1cc(Cl)c([N+](=O)[O-])cc1Cl | 4.22 µM (inactive) | 35.9 µM (inactive) | – | 33.6 µM (inactive) | 15.5 µM (inactive) | 12 µM (inactive) | – | 24.9 µM (inactive) | 12.8 µM (inactive) | 14.8 µM (inactive) | 14.6 µM (inactive) | 18.7 µM (inactive) | 17.6 µM (inactive) | 13 µM (inactive) | – | 22.8 µM (inactive) | 13.6 µM (inactive) | 29.9 µM (inactive) | 30 µM (inactive) | – |
| C=CCCCN(C(=O)c1ccccc1)c1ccc(C(=O)OC)o1 | 31 µM (inactive) | 34 µM (inactive) | > 100 µM (inactive) | 78 µM (inactive) | 64.3 µM (inactive) | > 100 µM (inactive) | > 100 µM (inactive) | > 100 µM (inactive) | > 100 µM (inactive) | > 100 µM (inactive) | > 100 µM (inactive) | 83.8 µM (inactive) | > 100 µM (inactive) | > 100 µM (inactive) | > 100 µM (inactive) | > 100 µM (inactive) | – | > 100 µM (inactive) | > 100 µM (inactive) | – |
| CC(=O)ON(OC(C)=O)c1ccc(C)cc1 | > 100 µM (inactive) | – | > 100 µM (inactive) | > 100 µM (inactive) | > 100 µM (inactive) | > 100 µM (inactive) | > 100 µM (inactive) | > 100 µM (inactive) | > 100 µM (inactive) | > 100 µM (inactive) | > 100 µM (inactive) | > 100 µM (inactive) | – | > 100 µM (inactive) | > 100 µM (inactive) | > 100 µM (inactive) | – | > 100 µM (inactive) | > 100 µM (inactive) | > 100 µM (inactive) |
| CSc1nc(Cl)c2c(n1)Sc1nc3cc4c(cc3n1C2O)OCO4 (stereo unspecified) | 0.526 µM (active) | – | 0.891 µM (active) | 0.0863 µM (active) | 0.26 µM (active) | 0.516 µM (active) | > 100 µM (inactive) | 0.46 µM (active) | 0.617 µM (active) | 0.391 µM (active) | 0.575 µM (active) | 0.306 µM (active) | 0.578 µM (active) | 5.75 µM (inactive) | – | 0.726 µM (active) | – | 0.637 µM (active) | 0.364 µM (active) | 0.452 µM (active) |
| O=C1/C(=C/c2ccccc2O)N=C(c2ccccc2)N1C1Nc2cc3c(cc2S1)NC(N1C(=O)/C(=C/c2ccccc2O)N=C1c1ccccc1)S3 (stereo unspecified) | 29.7 µM (inactive) | 8.05 µM (inactive) | 31.9 µM (inactive) | 27.3 µM (inactive) | 35.2 µM (inactive) | – | 60.5 µM (inactive) | 23 µM (inactive) | – | 32.7 µM (inactive) | 30.7 µM (inactive) | 34.4 µM (inactive) | – | 46.7 µM (inactive) | 0.489 µM (active) | 35.2 µM (inactive) | 18.3 µM (inactive) | 16.6 µM (inactive) | 12.5 µM (inactive) | – |
| CN(CCCNC(=O)c1nn(-c2ccc(Cl)cc2Cl)c2c1ccc1ccccc12)CCCNC(=O)c1nn(-c2ccc(Cl)cc2Cl)c2c1ccc1ccccc12 | 1.88 µM (inactive) | 1.81 µM (inactive) | 1.81 µM (inactive) | 1.67 µM (inactive) | 1.46 µM (inactive) | 1.95 µM (inactive) | 1.68 µM (inactive) | – | 1.63 µM (inactive) | 1.75 µM (inactive) | 1.82 µM (inactive) | 1.68 µM (inactive) | 1.65 µM (inactive) | 1.69 µM (inactive) | 1.84 µM (inactive) | 1.65 µM (inactive) | 0.278 µM (active) | 1.61 µM (inactive) | 1.78 µM (inactive) | – |
| N#Cc1c(-c2ccccc2)c(C#N)c(=O)n(NS(=O)(=O)c2ccccc2)c1O | > 100 µM (inactive) | – | – | > 100 µM (inactive) | > 100 µM (inactive) | > 100 µM (inactive) | > 100 µM (inactive) | – | > 100 µM (inactive) | > 100 µM (inactive) | > 100 µM (inactive) | > 100 µM (inactive) | > 100 µM (inactive) | > 100 µM (inactive) | > 100 µM (inactive) | > 100 µM (inactive) | – | > 100 µM (inactive) | > 100 µM (inactive) | > 100 µM (inactive) |
| CC1CN=C(Nc2ccc(S(N)(=O)=O)cc2)S1 (stereo unspecified) | > 100 µM (inactive) | 60.1 µM (inactive) | > 100 µM (inactive) | > 100 µM (inactive) | – | > 100 µM (inactive) | > 100 µM (inactive) | 39.4 µM (inactive) | > 100 µM (inactive) | > 100 µM (inactive) | > 100 µM (inactive) | > 10 µM (inactive) | > 100 µM (inactive) | > 100 µM (inactive) | > 100 µM (inactive) | > 100 µM (inactive) | > 100 µM (inactive) | > 100 µM (inactive) | > 100 µM (inactive) | – |
| Cc1ccc(N(C(=O)Nc2ccc(F)c(Cl)c2)C2=NCC(C)S2)cc1 (stereo unspecified) | 18.7 µM (inactive) | 33 µM (inactive) | 28.6 µM (inactive) | 38.6 µM (inactive) | – | 77.3 µM (inactive) | 38.7 µM (inactive) | > 100 µM (inactive) | 57.3 µM (inactive) | > 100 µM (inactive) | 48.2 µM (inactive) | 46.7 µM (inactive) | 67 µM (inactive) | 49.9 µM (inactive) | – | 61.5 µM (inactive) | 40.2 µM (inactive) | 27.8 µM (inactive) | 45.1 µM (inactive) | – |
| Cc1nc2c3c(ncn2n1)Oc1c(c(-c2ccccc2)nn1-c1ccccc1)C3c1ccc(Cl)cc1 (stereo unspecified) | – | > 100 µM (inactive) | > 100 µM (inactive) | > 100 µM (inactive) | – | 46.1 µM (inactive) | 22.1 µM (inactive) | > 100 µM (inactive) | > 100 µM (inactive) | > 100 µM (inactive) | 56.9 µM (inactive) | > 100 µM (inactive) | > 100 µM (inactive) | > 100 µM (inactive) | 98.4 µM (inactive) | > 100 µM (inactive) | 45.1 µM (inactive) | 47.2 µM (inactive) | > 100 µM (inactive) | – |
| COC1OC(Cn2cc([N+](=O)[O-])nc2C)C(O)C(O)C1O (stereo unspecified) | > 100 µM (inactive) | > 100 µM (inactive) | > 100 µM (inactive) | > 100 µM (inactive) | > 100 µM (inactive) | 5.93 µM (inactive) | > 100 µM (inactive) | > 100 µM (inactive) | > 100 µM (inactive) | > 100 µM (inactive) | – | > 100 µM (inactive) | – | > 100 µM (inactive) | > 100 µM (inactive) | > 100 µM (inactive) | > 100 µM (inactive) | – | > 100 µM (inactive) | – |
| Cc1nc2c(o1)C(=O)c1ccccc1/C2=N/c1ccccn1 | 16.7 µM (inactive) | – | 11.5 µM (inactive) | 20.4 µM (inactive) | 19 µM (inactive) | 12.5 µM (inactive) | 15 µM (inactive) | 22.6 µM (inactive) | 31.8 µM (inactive) | 15.6 µM (inactive) | 15.4 µM (inactive) | 30.8 µM (inactive) | 24.9 µM (inactive) | 17.7 µM (inactive) | 18.2 µM (inactive) | 18.8 µM (inactive) | 24.1 µM (inactive) | 24.2 µM (inactive) | 14.6 µM (inactive) | 18.3 µM (inactive) |
| COc1c(C)c(C/C=C(\C)CCCCO)c(OC)c2ccccc12 | 16.9 µM (inactive) | – | 29.7 µM (inactive) | 28.9 µM (inactive) | 19.1 µM (inactive) | – | 38.5 µM (inactive) | 30.1 µM (inactive) | 36.1 µM (inactive) | 40.6 µM (inactive) | 33.1 µM (inactive) | 34.4 µM (inactive) | 23.4 µM (inactive) | 61.5 µM (inactive) | 21.4 µM (inactive) | 83.6 µM (inactive) | 26.3 µM (inactive) | 44 µM (inactive) | 20.6 µM (inactive) | 46.7 µM (inactive) |
| O/N=C1\CCc2nonc2\C1=N/Nc1ccccc1 | > 100 µM (inactive) | 57.3 µM (inactive) | > 100 µM (inactive) | > 100 µM (inactive) | – | > 100 µM (inactive) | > 100 µM (inactive) | 30.5 µM (inactive) | > 100 µM (inactive) | > 100 µM (inactive) | > 100 µM (inactive) | > 100 µM (inactive) | > 100 µM (inactive) | 39.9 µM (inactive) | > 100 µM (inactive) | > 100 µM (inactive) | > 100 µM (inactive) | > 100 µM (inactive) | > 100 µM (inactive) | – |

— ChEMBL document CHEMBL1201862, “PubChem BioAssay data set” (2004)
